From EP4748841A1, “BICYCLO[5,6] IMIDAZOLE PYRIMIDONE DERIVATIVE AND PREPARATION METHOD THEREFOR AND USE THEREOF” (Shujing Biopharma Co., Ltd, priority 2023, dated 2025)

Legend:
Assay type in all cases: in vitro ADME
[1] = Liver microsome stability experiment (beagle dog); details: for CLint scaled at 1 µM: beagle, dog, liver microsomes, pH 7.4, Beagle dog liver microsomes; for half-life at 1 µM: pH 7.4, Beagle dog liver microsomes
Procedure: (§1) This experiment aimed to evaluate the phase I metabolic stability of the compounds of the present disclosure in liver microsomes of SD rats, beagle dogs, cynomolgus monkeys, and humans.
(§2) • (1) Buffer preparation: 73.21 g of dipotassium hydrogen phosphate trihydrate and 10.78 g of potassium dihydrogen phosphate were dissolved in 4000 mL of ultrapure water. The pH of the solution was adjusted to within 7.40 ± 0.10 using 10% phosphoric acid or 1 M potassium hydroxide, resulting in a final concentration of 100 mM. • (2) Solution preparation and dilution: Stock solutions of the test compounds at a concentration of 10 mM were prepared in dimethyl sulfoxide (DMSO) and stored at 4 °C, and they were diluted into 100 µM working solutions with pure acetonitrile when used. A stock solution of the control compound testosterone at a concentration of 10 mM was prepared in DMSO and stored at -20 °C, and it was diluted into a 400 µM working solution with pure acetonitrile when used. • (3) Termination solution preparation: The termination solution was an acetonitrile solution containing an internal standard (terfenadine). The prepared termination solution was stored in a refrigerator at 2-8 °C. • (4) Liver microsome solution preparation: Liver microsomes from various species (SD rat, beagle dog, cynomolgus monkey, and human) were diluted into 20× working solutions using 100 mM potassium phosphate buffer. The final concentration of the liver microsomes in the reaction system was 0.5 mg/mL. • (5) Reduced nicotinamide adenine dinucleotide phosphate (NADPH) regeneration system preparation: Appropriate amounts of nicotinamide adenine dinucleotide phosphate (NADP), glucose-6-phosphate (G6P), magnesium chloride (MgCl2), and glucose-6-phosphate dehydrogenase (G6PDH) were weighed to prepare stock solutions at concentrations of 65.33 mM, 330 mM, 300 mM, and 250 Units/mL, respectively. The four stock solutions described above were each added to an appropriate amount of buffer, and the mixture was mixed well by gently inverting up and down. The final concentrations of NADP, G6P, MgCl2, and G6PDH in the NADPH regeneration system were 2.65 mM, 10.2 mM, 6.12 mM, and 2.45 Units/mL, respectively. • (6) Incubation process: The incubation was completed in 96-well plates. Several incubation plates were prepared and named T0, T5, T10, T20, T40, T60, and NCF60, respectively. The first 6 plates corresponded to reaction time points of 0 min, 5 min, 10 min, 20 min, 40 min, and 60 min, respectively. The NCF60 plate was incubated for 60 min with potassium phosphate buffer replacing the NADPH regeneration system solution. Samples under all conditions were prepared in triplicate.
(§3) 2 µL of the test compound or control compound and 100 µL of microsome working solution (containing 1 mg/mL liver microsome protein) were added to each of the T0, T5, T10, T20, T40, T60, and NCF60 plates, and only the microsome working solution was added to the Blank 60 plate. The plates described above were then pre-incubated in a 37 °C water bath for about 10 min.
(§4) After the pre-incubation was completed, 98 µL of the NADPH regeneration system working solution was added to each sample well except for the NCF60 plate and the T0 plate to initiate the reaction, and 98 µL of potassium phosphate buffer was added to each well of the NCF60 plate. Therefore, for the sample wells containing the test sample or control substance working solution, the final concentrations of TC and testosterone in the reaction were 1 µM and 4 µM, respectively, the concentration of liver microsomes was 0.5 mg/mL, and the final concentrations of DMSO and acetonitrile in the reaction system were 0.01% (v/v) and 0.99% (v/v), respectively.
(§5) After incubation for an appropriate time (e.g., 5 min, 10 min, 20 min, 40 min, and 60 min), 600 µL of a termination solution (an acetonitrile solution containing 100 ng/mL […]) was added to each test compound sample well and control compound sample well to terminate the reaction. […]

[2] = Liver microsome stability experiment (SD rat); details: for CLint scaled at 1 µM: SD, rat, liver microsomes, pH 7.4, SD rat liver microsomes; for half-life at 1 µM: pH 7.4, SD rat liver microsomes
Procedure: as §1, §2, §3, §4, §5

[3] = Liver microsome stability experiment (cynomolgus monkey); details: pH 7.4, Cynomolgus monkey liver microsomes, 0.5 mg/mL; for CLint scaled at 1 µM: cynomolgus monkey, liver microsomes
Procedure: as §1, §2, §3, §4, §5

[4] = 0.5 mg/mL, 1 µM, read-out: CL(liver)
[5] = 0.5 mg/mL, 1 µM, read-out: CLint(liver)
[6] = read-out: Clearance rate classification

| SMILES | CLint scaled at 1 µM [1, 4] [mL/min/kg] | CLint scaled at 1 µM [1, 5] [mL/min/kg] | CLint scaled at 1 µM [1, 6] [mL/min/kg] | half-life at 1 µM ([1]; 0.5 mg/mL, 1 µM) [h] | CLint scaled at 1 µM [2, 4] [mL/min/kg] | CLint scaled at 1 µM [2, 5] [mL/min/kg] | CLint scaled at 1 µM [2, 6] [mL/min/kg] | half-life at 1 µM ([2]; 0.5 mg/mL, 1 µM) [h] | CLint scaled at 1 µM ([3]; read-out: CL(liver)) [mL/min/kg] | CLint scaled at 1 µM ([3]; read-out: CLint(liver)) [mL/min/kg] | half-life at 1 µM [3] [h] |
| --- | --- | --- | --- | --- | --- | --- | --- | --- | --- | --- | --- |
| O=c1nc(OCc2cc(F)c(Oc3ccnc(C(F)(F)F)c3)c(F)c2)cc2n1C[C@H]1CCCN21 [Comparative Example 1, reference compound] | 10.5 | 15.8 | 13.2 to 72.1 | 2.1 | 18.9 | 28.7 | 23.7 to 129 | 1.45 | 28.3 | 81 | 0.385 |
| O=c1nc(OCc2cc(F)c(Oc3ccnc(C(F)(F)F)c3)c(F)c2)cc2n1C[C@H]1CCN21 [Example 34-R] | < 8 | < 10.7 | ≤ 13.2 | > 3.11 | < 10.8 | < 13.4 | ≤ 23.7 | > 3.11 | < 8.2 | < 10 | > 3.11 |
